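These data come from cells grown in 96-well plates and exposed to compound for 48 hours at five concentrations. GI50 is the concentration that inhibits growth by half.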 Activity calls are given as the source filed them. Cut-off read from the data, not from the text of the source: active = GI50 up to about 1.1 µM and inactive = higher.
Tests used:
Assay in all cases: DTP human tumour cell line panel, 48 h
DMS-273 = system: DMS-273
DLD-1 = system: DLD-1
HOP-18 = system: HOP-18
SNB-78 = system: SNB-78
LXFL 529 = system: LXFL 529
XF498 = system: XF498
DMS-114 = system: DMS-114
RXF 631 = system: RXF 631
BT-549 = system: BT-549

Row | Compound | GI50 (DMS-273) | GI50 (DLD-1) | GI50 (HOP-18) | GI50 (SNB-78) | GI50 (LXFL 529) | GI50 (XF498) | GI50 (DMS-114) | GI50 (RXF 631) | GI50 (BT-549)
1 | COC1=C(N)C(=O)c2nc(C)ccc2C1=O | 1.83 µM (inactive) | 2.31 µM (inactive) | 1.98 µM (inactive) | 3.52 µM (inactive) | 2.43 µM (inactive) | 1.51 µM (inactive) | 1.78 µM (inactive) | – | –
2 | CC1=C2C=CC(=O)C[C@@]2(C)CCC1 | > 100 µM (inactive) | > 100 µM (inactive) | – | > 100 µM (inactive) | > 100 µM (inactive) | > 100 µM (inactive) | > 100 µM (inactive) | > 100 µM (inactive) | –
3 | CCc1cccc(C)c1NC(=O)CC1C(=O)Nc2ccccc2S1(=O)=O (centres undefined) | 7.01 µM (inactive) | 15.8 µM (inactive) | – | 21.1 µM (inactive) | 16.7 µM (inactive) | 12.5 µM (inactive) | 16.8 µM (inactive) | 14.2 µM (inactive) | –
4 | COC(=O)CCC(NC(=S)N/N=C(\C)c1cccs1)C(=O)OC (centres undefined) | > 100 µM (inactive) | > 100 µM (inactive) | > 100 µM (inactive) | > 100 µM (inactive) | > 100 µM (inactive) | > 100 µM (inactive) | > 100 µM (inactive) | – | –
5 | Cc1nc2ccccc2c(=O)n1/N=C(\N=N\c1ccccc1Cl)c1ccccc1Cl | 44.8 µM (inactive) | 67.5 µM (inactive) | 28 µM (inactive) | – | 52.1 µM (inactive) | 11.9 µM (inactive) | 26.4 µM (inactive) | 88.9 µM (inactive) | –
6 | Nc1ccc(C(=O)N/C(=C\c2ccc3c(c2)OCO3)c2nc3c(O)nc(S)nc3[nH]2)cc1 | – | > 100 µM (inactive) | – | > 100 µM (inactive) | > 100 µM (inactive) | > 100 µM (inactive) | – | > 100 µM (inactive) | –
7 | O=C(NO)C(=O)Nc1ccc(Cl)cc1[N+](=O)[O-] | > 100 µM (inactive) | > 100 µM (inactive) | > 100 µM (inactive) | > 100 µM (inactive) | > 100 µM (inactive) | – | > 100 µM (inactive) | > 100 µM (inactive) | –
8 | O=C(O)COc1ccc(C(=O)/C(SS/C(C(=O)c2ccc(OCC(=O)O)c(Cl)c2Cl)=C2\C=C(c3ccc(Br)cc3)SS2)=C2/C=C(c3ccc(Br)cc3)SS2)c(Cl)c1Cl | 23.8 µM (inactive) | 6.14 µM (inactive) | 5.48 µM (inactive) | 4.57 µM (inactive) | 1.29 µM (inactive) | 3.19 µM (inactive) | 1.05 µM (active) | – | 8.13 µM (inactive)
9 | COc1ccc2[nH]c3c(C)c4cc[n+](COC(=O)c5ccccc5)cc4c(C)c3c2c1 | – | – | 0.0198 µM (active) | 0.897 µM (active) | 0.148 µM (active) | 1.48 µM (inactive) | 0.279 µM (active) | 0.165 µM (active) | –
10 | CCOc1ccc(NC(=O)C(=O)CC(=O)c2c[n+]([O-])c3cc(C)c(C)cc3[n+]2[O-])cc1 | > 100 µM (inactive) | – | > 100 µM (inactive) | > 100 µM (inactive) | > 100 µM (inactive) | > 100 µM (inactive) | > 100 µM (inactive) | > 100 µM (inactive) | –
11 | Cc1cc2oc(-c3ccccc3)c(C)c(=O)c2c2c1OC(C)(C)S2 | 71.9 µM (inactive) | 99.1 µM (inactive) | > 100 µM (inactive) | – | > 100 µM (inactive) | > 100 µM (inactive) | 83.9 µM (inactive) | > 100 µM (inactive) | –
12 | COc1ccc(Nc2nc(C#N)c(N)s2)cc1 | 26.7 µM (inactive) | 48.6 µM (inactive) | – | > 100 µM (inactive) | 31.9 µM (inactive) | 21.4 µM (inactive) | – | 35.9 µM (inactive) | –
13 | CCOC(=O)C(C(=O)OCC)P(=S)(S)c1ccccc1 (centres undefined) | > 100 µM (inactive) | > 100 µM (inactive) | – | – | > 100 µM (inactive) | > 100 µM (inactive) | > 100 µM (inactive) | > 100 µM (inactive) | –
14 | OC1CCC[C@@H]1Sc1ccccc1 (some centres undefined) | > 100 µM (inactive) | > 100 µM (inactive) | – | > 100 µM (inactive) | > 100 µM (inactive) | > 100 µM (inactive) | > 100 µM (inactive) | > 100 µM (inactive) | –

Source: ChEMBL document CHEMBL1201862, “PubChem BioAssay data set” (2004)
